Data taken from article PMC4056445 (Journal of ethnopharmacology, 2011).

How the values were obtained:
PDE6 = target: T1, PDE6 (Gallus gallus, UniProt P52731); test: PDE6 inhibition, two-step radioactive [3H]cGMP assay; type: biochemical, chicken
T1 sequence (P52731 1-859 limits assumed): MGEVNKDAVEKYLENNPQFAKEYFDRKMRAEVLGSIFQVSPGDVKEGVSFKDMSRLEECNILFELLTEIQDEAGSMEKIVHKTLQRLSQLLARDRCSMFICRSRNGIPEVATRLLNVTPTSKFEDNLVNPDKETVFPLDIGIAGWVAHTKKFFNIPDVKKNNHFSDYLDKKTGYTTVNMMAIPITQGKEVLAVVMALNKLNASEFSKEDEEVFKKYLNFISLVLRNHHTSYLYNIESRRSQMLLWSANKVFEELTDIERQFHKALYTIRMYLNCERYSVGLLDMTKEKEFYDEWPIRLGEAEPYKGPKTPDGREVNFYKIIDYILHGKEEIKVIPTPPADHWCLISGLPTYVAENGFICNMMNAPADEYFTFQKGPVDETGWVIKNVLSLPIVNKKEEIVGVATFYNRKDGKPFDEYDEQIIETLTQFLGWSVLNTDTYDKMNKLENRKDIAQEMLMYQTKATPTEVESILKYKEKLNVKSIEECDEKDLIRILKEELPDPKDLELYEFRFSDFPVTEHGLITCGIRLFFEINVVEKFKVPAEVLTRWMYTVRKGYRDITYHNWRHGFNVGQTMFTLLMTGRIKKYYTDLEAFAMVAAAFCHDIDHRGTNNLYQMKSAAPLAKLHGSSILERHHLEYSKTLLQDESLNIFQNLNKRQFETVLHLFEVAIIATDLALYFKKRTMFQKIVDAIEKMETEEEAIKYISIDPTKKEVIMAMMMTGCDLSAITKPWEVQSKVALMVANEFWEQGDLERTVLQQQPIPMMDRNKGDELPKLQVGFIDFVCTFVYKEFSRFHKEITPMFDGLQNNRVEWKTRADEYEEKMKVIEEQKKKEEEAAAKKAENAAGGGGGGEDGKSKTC

PDE5 = PDE5 (Mus musculus, UniProt Q8CG03); test: PDE5 inhibition, two-step radioactive [3H]cGMP assay; type: biochemical; conditions: for IC50 ratio PDE6/PDE5: pure compounds, selectivity on PDE5 over PDE6

Compound | IC50 (PDE6) | IC50 (PDE5) | IC50 ratio PDE6/PDE5 (PDE5) | inhibition at 10 µM (PDE6; read-out: % Inhibitory activity at 10 μM PDE6, final concentration 10 μM, n = 3) | inhibition at 10 µM (PDE5; read-out: % Inhibitory activity at 10 μM PDE5, final concentration 10 μM, n = 3)
CCCc1nn(C)c2c(=O)[nH]c(-c3cc(S(=O)(=O)N4CCN(C)CC4)ccc3OCC)nc12 [Sildenafil, sildenafil] | 33 ± 10 nM | 6.8 nM | 4.85 |  | 
OCCN(CCO)c1nc(N2CCCCC2)c2nc(N(CCO)CCO)nc(N3CCCCC3)c2n1 [Dipyridamole, dipyridamole] | 231 ± 30 nM | 1460 ± 810 nM |  |  | 
COc1cc(OC)c2c(=O)cc(-c3ccccc3)oc2c1 [Compound 2, 5,7-dimethoxyflavone] | 39500 ± 1000 nM | 10600 ± 2090 nM | 3.71 | > 35% | > 35%
